Measured values taken from patent US10836706B2, “Bacterial efflux pump inhibitors” (RUTGERS, THE STATE UNIVERSITY OF NEW JERSEY, priority 2016, dated 2020).

Experiments:
[1] = tested on: Pseudomonas aeruginosa ATCC 27853; assay: Test A: MIC-based assay for potentiation of antibiotics that are known efflux pump substrates; assay type: cell-based; details: antibiotic MIC (e.g., clarithromycin and levofloxacin) in presence vs absence of the EPI compound; EPI at 1.6 to 12.5 g/mL in CAMH broth, 24 hours at 37° C.
Source text: (§1) The ability of a compound disclosed herein to inhibit a bacterial efflux pump can be determined using a method like Test A or Test B as described in Example 20 and as shown in Table 1. Test A. Minimum Inhibitory Concentration (MIC)-Based Assay for Potentiation of Antibiotics that are Known Efflux Pump Substrates: MIC-based assays were used to evaluate the impact of potential efflux pump inhibiting (EPI) compounds on the MICs of antibiotics (e.g., clarithromycin and levofloxacin) known to be substrates for Gram-negative bacterial efflux pumps. The assays were conducted in accordance with Clinical and Laboratory Standards Institute (CLSI) guidelines for broth microdilution, with the modification that assays were conducted in the presence and absence of the test EPI compounds. […] Log-phase Gram-negative bacteria were added to 96-well microtiter plates (at 5×10^5 colony forming units (CFU) per mL) containing two-fold serial dilutions of antibiotic in CAMH broth either in the absence or presence of the test EPI compounds. In all assays, each serial dilution of antibiotic was present in duplicate. The final volume in each well was 0.1 mL, and the microtiter plates were incubated aerobically for 24 hours at 37° C. […] The following Gram-negative bacterial strains were included in these assays: Pseudomonas aeruginosa ATCC 27853.

[2] = tested on: Escherichia coli ATCC 25922; assay: as above; assay type: cell-based; details: antibiotic MIC (e.g., clarithromycin and levofloxacin) in presence vs absence of the EPI compound; EPI at 1.6 to 12.5 μg/mL in CAMH broth, 24 hours at 37° C.
Source text: as §1, with “Escherichia coli” for “Pseudomonas aeruginosa”, “25922” for “27853.”

| Compound | Enhanced Activity in P. aeruginosa [1] | Enhanced Activity in E. coli [2] |
| --- | --- | --- |
| CC(C)C(N)CC[C@H](N)CNCc1cc(-c2ccc(F)cc2)cc(-c2ccc(F)cc2)c1.Cl.Cl.Cl (stereo partly drawn) [Example 5, (2S)—N^1-((4,4″-difluoro-[1,1′:3′,1″-terphenyl]-5′-yl)methyl)-6-methylheptane-1,2,5-triaminium chloride] | ≥2x | 32 x |
| Cl.Cl.Cl.NCCN(CCN)Cc1cc(-c2ccc(F)cc2)cc(-c2ccc(F)cc2)c1 [Example 7, N1-(2-ammonioethyl)-N1-((4,4″-difluoro-[1,1′:3′,1″-terphenyl]-5′-yl)methyl)ethane-1,2-diaminium chloride] | ≥16x | ≥512x |
| Cl.Cl.Cl.NCCN(CCN)Cc1cc(C(F)(F)F)cc(C(F)(F)F)c1 [Example 8, 2-ammonio-1-((2-ammonioethyl)(3,5-bis(trifluoromethyl)benzyl)-14-azanyl)ethan-1-ylium chloride] | <2x | <2x |
| Cl.Cl.NCCC[C@H](N)COc1cc(-c2ccc(F)cc2)cc(-c2ccc(F)cc2)c1 [Example 13, (S)-5-((4,4″-difluoro-[1,1′:3′,1″-terphenyl]-5′-yl)oxy)pentane-1,4-diaminium chloride] | <2x | 256x |
| CC(C)C(N)CC[C@H](N)COc1cc(-c2ccc(F)cc2)cc(-c2ccc(F)cc2)c1.Cl.Cl (stereo partly drawn) [Example 14, (2S)-1-((4,4″-difluoro-[1,1′:3′,1″-terphenyl]-5′-yl)oxy)-6-methylheptane-2,5-diaminium] | <2x | <2x |
| Cl.Cl.Cl.NCCC[C@H](N)CNCc1cc(C(F)(F)F)cc(C(F)(F)F)c1 [Example 1, (S)—N^1-(3,5-bis(trifluoromethyl)benzyl)pentane-1,2,5-triaminium Chloride] | <2x | ≥2x |
| Cl.Cl.NCCC[C@@H](N)COc1cc(-c2ccc(F)cc2)cc(-c2ccc(F)cc2)c1 [Example 11, (R)-5-((4,4″-difluoro-[1,1′:3′,1″-terphenyl]-5′-yl)oxy)pentane-1,4-diaminium chloride] | ≥16x | ≥1024 x |
| Cl.Cl.NCCC[C@@H](N)COc1cc(-c2ccc(F)c(F)c2)cc(-c2ccc(F)c(F)c2)c1 [Example 19, (R)-5-((3,3″,4,4″-tetrafluoro-[1,1′:3′,1″-terphenyl]-5′-yl)oxy)pentane-1,4-diaminium chloride] | ≥1x | ≥2x |
| CC(C)(CNC[C@@H](N)CCCN)c1cc(-c2ccc(F)cc2)cc(-c2ccc(F)cc2)c1.Cl.Cl.Cl [Example 9, (S)—N^1-(2-(4,4″-difluoro-[1,1′:3′,1″-terphenyl]-5′-yl)-2-methylpropyl)pentane-1,2,5-triaminium chloride] | ≥2x | ≥128 x |
| NCCC[C@H](N)CNCc1cc(-c2ccccc2)cc(-c2ccccc2)c1 [Example 15, (S)—N1-([1,1′:3′,1″-terphenyl]-5′-ylmethyl)pentane-1,2,5-triaminium Chloride] | ≥16x | ≥128x |
| Cl.Cl.Cl.NCCC[C@H](N)CNCCc1cc(-c2ccc(F)cc2)cc(-c2ccc(F)cc2)c1 [Example 10, (S)—N1-(2-(4,4″-difluoro-[1,1′:3′,1″-terphenyl]-5′-yl)ethyl)pentane-1,2,5-triaminium chloride] | ≥64x | ≥1024x |
| Cl.Cl.NCCC[C@@H](N)COc1cc(-c2cccc(F)c2)cc(-c2cccc(F)c2)c1 [Example 18, (R)-5-((3,3″-difluoro-[1,1′:3′,1″-terphenyl]-5′-yl)oxy)pentane-1,4-diaminium chloride] | ≥1x | ≥512x |
| COc1ccc(-c2cc(OC[C@@H](N)CCCN)cc(-c3ccc(OC)cc3)c2)cc1.Cl.Cl [Example 17, (S)-5-((4,4″-dimethoxy-[1,1′:3′,1″-terphenyl]-5′-yl)oxy)pentane-1,4-diaminium chloride] | ≥2x | ≥1024x |
| CC(C)(C)c1cc(CNC[C@@H](N)CCCN)cc(C(C)(C)C)c1.Cl.Cl.Cl [Example 2, (S)—N^1-(3,5-di-tert-butylbenzyl)pentane-1,2,5-triaminium Chloride] | <2x | ≥8x |
| Cl.Cl.NC[C@H](N)CCc1cc(-c2ccc(F)cc2)cc(-c2ccc(F)cc2)c1 [Example 12, (R)-4-(4,4″-difluoro-[1,1′:3′,1″-terphenyl]-5′-yl)butane-1,2-diaminium chloride] | <2x | ≥32x |
| Cl.Cl.Cl.NCCC[C@H](N)CNCc1cc(-c2ccc(F)cc2)cc(-c2ccc(F)cc2)c1 [Example 6, (S)—N1-((4,4″-difluoro-[1,1′:3′,1″-terphenyl]-5′-yl)methyl)pentane-1,2,5-triaminium chloride] | ≥16x | ≥512x |
| Cl.Cl.Cl.NCCC[C@H](N)CNCCc1cc(C(F)(F)F)cc(C(F)(F)F)c1 [Example 3, (S)—N^1-(3,5-bis(trifluoromethyl)phenethyl)pentane-1,2,5-triaminium chloride] | ≥2x | ≥4x |
| CC(N)CC[C@H](N)CNCc1cc(C(F)(F)F)cc(C(F)(F)F)c1.Cl.Cl.Cl (stereo partly drawn) [Example 4, (2S)—N^1-(3,5-bis(trifluoromethyl)benzyl)hexane-1,2,5-triaminium Chloride] | <2x | <2x |
| Cl.Cl.NCCC[C@H](N)COc1cc(-c2ccc(C(F)(F)F)cc2)cc(-c2ccc(C(F)(F)F)cc2)c1 [Example 16, (S)-5-((4,4″-bis(trifluoromethyl)-[1,1′:3′,1″-terphenyl]-5′-yl)oxy)pentane-1,4-diaminium chloride] | ≥2x | <2x |
